Reference: a compilation of properties of binary mixtures (doi:10.1021/je700428f)

Assay: xn = mol fraction of the nth substance listed
Conditions: 100 kPa

Structure (SMILES): CCCO + C=CC[n+]1ccn(C)c1.O=S(=O)([N-]S(=O)(=O)C(F)(F)F)C(F)(F)F
- speed of sound (298.15 K, x2 = 0): 1206.5 m/s
- speed of sound (338.15 K, x2 = 0): 1071.5 m/s
- speed of sound (343.15 K, x2 = 0): 1054.5 m/s

Structure (SMILES): C=CC[n+]1ccn(C)c1.O=S(=O)([N-]S(=O)(=O)C(F)(F)F)C(F)(F)F + CCCO
- speed of sound (298.15 K, x1 = 0.2987): 1189.5 m/s
- speed of sound (308.15 K, x1 = 0.8024): 1207.5 m/s
- speed of sound (313.15 K, x1 = 0.5004): 1173.5 m/s
- speed of sound (323.15 K, x1 = 0.2987): 1127.5 m/s

Structure (SMILES): CC[S+](CC)CC.O=S(=O)([N-]S(=O)(=O)C(F)(F)F)C(F)(F)F + CCCO
- speed of sound (293.15 K, x1 = 0.0493): 1205.5 m/s
- speed of sound (308.15 K, x1 = 0.0493): 1159.5 m/s
- speed of sound (323.15 K, x1 = 0.903): 1181.5 m/s

Structure (SMILES): CCCO + CC[S+](CC)CC.O=S(=O)([N-]S(=O)(=O)C(F)(F)F)C(F)(F)F
- speed of sound (338.15 K, x2 = 0): 1071.5 m/s
- speed of sound (343.15 K, x2 = 0): 1054.5 m/s
